“Also recorded” adds a separate entry of the source. Where a SMILES comes first, the peptide text is derived from it. The star is where a group is joined. Cbz = O=C(OCc1ccccc1)*; CH2F = FC*
How the values were obtained:
[1] = tested on: L929 cells; experiment: TNFα-induced CICD of L929 cells, ATP assay; type: cell-based, mouse; conditions: no caspase inhibitor
Experimental: Cell viability was determined using ATP-Lite-M ATP assay (Packard). The values represent viability relative to the control lacking TNFα, which was set as 100% viability.
Cell viability in this and subsequent panels was determined by ATP-based viability assay. Numbers represent percentages of the live cells normalized to those in the untreated control wells. Throughout, error bars represent standard deviations. […] Numbers represent viability normalized to that of the corresponding compound-treated cells in the absence of FasL. […] Numbers represent viability normalized to that of the corresponding compound-treated cells in the absence of dimerizer. […] Cells were treated with TNFα (E, F, H), zVAD.fmk (E, F), or CHX (F) for 16 (F) or 24 (E, H) hours. Numbers represent viability normalized to that of the compound-treated cells in the absence of TNFα.

[2] = tested on: Jurkat T cells; experiment: Necrosis (CICD) of Jurkat T cells induced by Fas ligand, cycloheximide and zVAD, ATP assay; type: cell-based, human; conditions: FasL/CHX/zVAD
Experimental: Jurkat cells were treated with 5 ng/ml of FasL without (A) or with cyclohexamide (CHX) (B) to induce apoptosis, or 5 ng/ml FasL, 1 μg/ml of CHX and 100 μM of zVAD.fmk to induce CICD (B). […] Cell viability was determined after 24 hours of incubation with indicated reagents using CellTiter-Glo ATP assay. The values represent viability relative to the control Jurkat cells without the treatment of FasL, which was set as 100% viability.
FIG. 34A is a graph showing the results of treating Jurkat T cells with Fas ligand (5 ng/ml), cyclohexamide (1 μg/ml) and zVAD (100 μM) in the presence of the indicated amounts of anti-necrotic compounds (4) and (5). Viability was determined 36 hours later using an ATP assay. The viability values are relative to the samples lacking Fas ligand, which were used as 100% viability controls. FIG. 34B is a graph as in FIG. 34A, in which the anti-necrotic compounds are (19) and (20).
Compounds were also tested in another necrosis assay utilizing human Jurkat T cells, Fas ligand to induce cell death, and zVAD to inhibit the apoptosis pathway. After 36 hours, cell viability was measure by the commercial CellTiter ATP cell viability assay (Promega).

[3] = tested on: BALB/c 3T3 cells; experiment: CICD of BALB/c 3T3 cells induced by TNFα/zVAD.fmk; type: cell-based, mouse
[4] = tested on: FADD-deficient Jurkat T cells treated with TNF-α; experiment: Inhibition of necroptosis (CICD) in FADD-deficient Jurkat T cells treated with TNF-α, ATP-based viability; type: cell-based, human; conditions: for antinecroptotic (anti-CICD) activity, in words: FADD-deficient Jurkat cells, TNFα
[5] = tested on: U937 cells; experiment: Necrosis of U937 cells induced by TNFα and zVAD.fmk (primary and secondary screen), ATP assay; type: cell-based, human; conditions: U937, 72 hours
Experimental: We plated U937 cells in 384-well plates at 5,000-10,000 cells per well in 40-μl phenol red-free RPMI 1640 medium containing 100 μM zVAD.fmk and 40 ng ml^−1 human TNFα using a Multidrop dispenser (Thermo Electron). We added 100 nl of the DiverSetE (5 mg ml^−1 in DMSO, Chembridge) using a Seiko-based custom-built pin transfer robot (Institute of Chemistry and Cell Biology, Harvard Medical School). After 72 hours, we assessed cell viability using a luminescence-based ATP assay (ATPLite-M, PerkinElmer). We also dispensed cells not treated with TNFα in each plate as a positive control. We purchased Nec-1 and other preliminary positive hits from Chembridge for individual retesting.
Using a known paradigm of death receptor mediated caspase-independent cell death in human U937 cells, we established a high-throughput screen in 384 well format for small molecule inhibitors of caspase-independent cell death (CICD). In this system, U937 cells were induced to undergo CICD in the presence of TNFα and zVAD.fmk, and the rate of cell death was determined by an ATP-Lite-M assay, a commercial luminescence-based assay measuring cellular ATP levels (Packard). U937 cells were chosen because these cells can be induced to undergo CICD very efficiently upon TNFα/zVAD treatment in the absence of additional, stress-inducing sensitizing stimuli, such as CHX, making this system perfectly suited for reliable identification of CICD inhibitors. Furthermore, rapid suspension growth kinetics of U937 cells results in the availability of large quantities of cells, which translates into robust signals ideal for high throughput screening. ATP-Lite-M assay was chosen because among all the different assay systems tested, it gives the most consistent and robust signal, which is also critical for high throughput screening. Exposure of U937 cells to TNFα alone led to partial cell death, whereas co-treatment with TNFα and caspase inhibitor zVAD.fmk produced significant increase in the amount of cell death and ATP loss consistent with the published observations. In addition, in the presence of zVAD.fmk, the morphology of cell loss changed from apoptosis with cell shrinkage, nuclear fragmentation, membrane blebbing to necrosis, characterized by cell swelling, increase in cytosolic density, and early loss of plasma membrane integrity. Other cell death assays, such as an MTT assay (mitochondrial metabolism) and Sytox assay (permeability of the plasma membrane), were used as alternative means to validate the screen, and consistently produced results similar to those obtained using ATP-Lite-M assay, which confirmed that the ATP-Lite-M assay can be used to accurately measure the extent of CICD.
In a primary screen, U-937 cells (5×10^5 or 7.5×10^5 cells/ml) were first exposed to zVAD-fmk (100 μM). Thirty minutes later the same cells were exposed to a chemical compound from the library (5 mg/ml, dissolved in 0.1-0.5 μl of DMSO, giving a final DMSO concentration of 0.3% to 1.5%). After an additional thirty minutes, TNFα (40 ng/ml) was added to the cell culture medium. The cells were then incubated at 37 C for 72 hours, and were then assayed for cellular ATP levels. […] Compounds which maintained cellular ATP levels were compounds which blocked necrosis triggered by zVAD-fmk and TNFα.
In a secondary screen, the compounds identified from the first screen, above, to decrease necrosis induced by zVAD-fmk and TNFα were assayed for their potency. Serial dilution of each chemical compound was performed and the compounds were administered to U-937 cells, as per the primary screen. The concentrations of each compound were 70 μM, 23 μM, 8 μM, and 2.5 μM. The level of necrosis occurring in response to zVAD-fmk, TNFα, and the various concentrations of chemical compounds was assayed as described above for the primary screen.

[6] = tested on: U-937 cells; experiment: Necrosis of low density U-937 cells induced by zVAD-fmk and DMSO, ATP levels; type: cell-based, human; conditions: U-937 1×10^5 cells/ml, 72 hours
Experimental: Methods for the identification of chemical compounds that decrease cell necrosis induced, for example, by zVAD-fmk/DMSO at a low cell density (e.g., 1×10^5 cells/ml) are achieved essentially as described above, except, the inducer of necrosis is zVAD-fmk/DMSO, rather than zVAD-fmk/TNFα.
Exposure of low density U-937 cells (1×10^5 cells/ml) to zVAD-fmk (100 μM) and DMSO (0.5%) for 72 hours results in cell death by necrosis. The compounds identified to decrease cell necrosis triggered by zVAD-fmk and TNFα, compounds 115807, 115681, 210227, and 215686 from the ChemBridge chemical library, were also evaluated for their ability to decrease cell necrosis induced by zVAD-fmk and DMSO. The cells (1×10^5 cells/ml) were first exposed to zVAD-fmk, and then thirty minutes later to the above-identified small molecules that decrease necrosis. After an additional 30 minutes, the cells were exposed to DMSO. 72 hours after exposure to the compounds, cellular ATP levels were measured, as described above.

[7] = tested on: CD8+ cells; experiment: Activation and proliferation of CD8+ cytotoxic T lymphocytes (CTL) suppressed by zVAD.fmk; type: cell-based, mouse; conditions: 100 μM zVAD.fmk, 30 μM compound
Experimental: Numbers of cells were determined using FACS analyses. Cell numbers are normalized to the number of cells in unstimulated control, which was set as 100%. […] Cells were stained with αCD8^+-FITC antibody (Pharmingen) and CD8^+ cell numbers were determined by FACS. Cell numbers are normalized to the number of cells in unstimulated control, which was set as 100%. Percentages of dead cells (line) was determined by co-staining cells with propidium iodide.
Values represent fold increase over unstimulated control.
Cells were stained with αCD8^+-FITC antibody (Pharmingen), and CD8^+ cell numbers were determined by FACS. Cell numbers are normalized to the number of cells in unstimulated control, which was set as 100%. Percentages of dead cells (line) were determined by co-staining cells with propidium iodide.

[8] = target: T1, RIP1 (Homo sapiens, UniProt Q13546); experiment: In vitro kinase assay: autophosphorylation of immunoprecipitated RIP1; type: biochemical; conditions: radioactive ATP, 30 min at 30° C., autoradiography
T1 construct: RIP has been immunoprecipitated (IP) from lysates of WT and RIP-deficient Jurkat cells using agarose-conjugated anti-RIP antibody; endogenous in cells; host or cells: Jurkat (wild type)

[9] = tested on: primary cortical neurons; experiment: Oxygen-glucose deprivation (OGD) induced death of primary cortical neurons, MAP2 cytoblot; type: cell-based; conditions: OGD 90 minutes, 24 hours recovery; 30 μM
Experimental: Cells were allowed to recover in the presence of the compounds (except for the CNQX/MK801) for 24 hours, and specific neuronal viability was determined using MAP2 cytoblot. Values represent the percentages of live cells normalized to the compound treated cells, which were maintained in glucose-containing, non-deoxygenated media. **—P<0.02. […] Cells were allowed to recover in the presence of the compounds for 24 hours, and specific neuronal viability was determined using MAP2 cytoblot. Values represent the percentages of live cells normalized to the compound treated cells, which were maintained in glucose-containing, non-deoxygenated media. **—P<0.04.

[10] = tested on: FADD deficient Jurkat cells; conditions: compound in the absence of TNFα
[11] = tested on: Primary mouse CD4+ and CD8+ T cells; experiment: Activation-induced cell death (AICD) of primary CD4+ and CD8+ T cells; type: cell-based; conditions: re-activated CD4+ cells
Experimental: Cell viability was assessed using Sytox Green (Molecular Probes) (CD8) or propidium iodide exclusion (CD4) assays in FIG. 17A or ATP assay in FIG. 17B. Numbers represent the percentages of live cells normalized to the corresponding compound treated controls lacking αCD3.

T1 sequence (Q13546 whole entry): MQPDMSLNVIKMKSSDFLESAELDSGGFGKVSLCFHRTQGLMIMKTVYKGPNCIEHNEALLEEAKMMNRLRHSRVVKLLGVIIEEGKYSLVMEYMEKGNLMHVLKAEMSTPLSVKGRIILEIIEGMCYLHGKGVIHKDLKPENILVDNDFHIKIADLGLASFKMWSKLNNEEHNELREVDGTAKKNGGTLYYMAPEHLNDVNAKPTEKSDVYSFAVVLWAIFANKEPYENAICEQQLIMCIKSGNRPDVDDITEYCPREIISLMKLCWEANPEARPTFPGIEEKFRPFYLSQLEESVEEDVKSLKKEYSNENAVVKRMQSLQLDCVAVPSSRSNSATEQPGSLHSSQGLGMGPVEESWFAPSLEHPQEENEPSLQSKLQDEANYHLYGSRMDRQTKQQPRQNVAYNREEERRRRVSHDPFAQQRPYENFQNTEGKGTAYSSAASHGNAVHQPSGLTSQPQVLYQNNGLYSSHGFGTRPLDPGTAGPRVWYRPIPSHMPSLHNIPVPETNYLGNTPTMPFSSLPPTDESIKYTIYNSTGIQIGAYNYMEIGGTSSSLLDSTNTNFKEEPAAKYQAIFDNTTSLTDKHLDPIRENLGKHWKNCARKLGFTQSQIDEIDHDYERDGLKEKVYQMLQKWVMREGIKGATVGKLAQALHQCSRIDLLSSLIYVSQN

SMILES: CCCNC(=O)[C@H]1O[C@@H]1C(=O)N[C@H](C(=O)N1CCC[C@H]1C(=O)OC)[C@@H](C)CC [Ca-074-Me, reference compound]
- protection of L929 cells from TNFα-induced CICD, in words [1]: neither these compounds nor geldanamycin work in L929 cells
- inhibition of CICD/necrosis of Jurkat cells, in words [2]: inhibits CICD in Jurkat and 3T3 cells
- inhibition of CICD in 3T3 cells, in words [3]: inhibits CICD in Jurkat and 3T3 cells

SMILES: Cn1cnc(N)c2ncnc1-2 [Compound 3MA, 3-methyladenine, reference compound]
- inhibition of CICD in 3T3 cells, in words [3]: necroptosis proceeded normally in the presence of 3-methyladenine (3MA)
- antinecroptotic (anti-CICD) activity, in words [4]: necroptosis proceeded normally in the presence of 3-methyladenine (3MA)

SMILES: Cc1cc(O)c(C(=O)/C=C/c2ccc(O)c([N+](=O)[O-])c2)c(=O)o1 [Compound 115681]
- inhibition of necrosis induced by TNFα/zVAD.fmk, in words [5]: identified to decrease necrosis in response to exposure of the cell to zVAD-fmk and TNFα
- decrease of necrosis induced by zVAD-fmk/DMSO, in words [6]: also decreased necrosis induced by zVAD-fmk/DMSO

SMILES: CN1C(=O)C(Cc2c[nH]c3ccccc23)NC1=S (stereo not shown) [Compound 115807]
- inhibition of necrosis induced by TNFα/zVAD.fmk, in words [5]: identified to decrease necrosis in response to exposure of the cell to zVAD-fmk and TNFα
- decrease of necrosis induced by zVAD-fmk/DMSO, in words [6]: also decreased necrosis induced by zVAD-fmk/DMSO

SMILES: COc1ccc(/C=C/C(=O)/C=C/c2ccc(OC)c(OC)c2)cc1OC [Compound 215686]
- inhibition of necrosis induced by TNFα/zVAD.fmk, in words [5]: identified to decrease necrosis in response to exposure of the cell to zVAD-fmk and TNFα
- decrease of necrosis induced by zVAD-fmk/DMSO, in words [6]: also decreased necrosis induced by zVAD-fmk/DMSO

SMILES: O=C1NC(=S)NC1Cc1c[nH]c2ccccc12 (stereo not shown) [Nec-1i]
- restoration of CTL activation/proliferation suppressed by zVAD.fmk, in words [7]: does not affect T cell proliferation; also recorded: failed to restore T cell proliferation
- inhibition of RIP1 autophosphorylation, in words [8]: showed significantly reduced activity in inhibiting RIP1 autophosphorylation
- protection from OGD-induced neuronal death, in words [9]: failed to rescue neuronal cell death
- antinecroptotic (anti-CICD) activity, in words [4]: does not inhibit CICD in vitro; also recorded: completely abolished antinecroptotic activity

SMILES: COc1ccc2c(c1)C1=NN(C(C)=O)C(c3ccc(F)cc3)C1CC2 (stereo not shown) [Nec-3]
- LD50 [10]: 143 µM
- inhibition of necrosis induced by TNFα/zVAD.fmk, in words ([5]; listed as 140): identified as an inhibitor of necrosis
- inhibition of necrosis induced by TNFα/zVAD.fmk, in words ([5]; listed as 210227): identified to decrease necrosis in response to exposure of the cell to zVAD-fmk and TNFα
- decrease of necrosis induced by zVAD-fmk/DMSO, in words [6]: also decreased necrosis induced by zVAD-fmk/DMSO
- EC50 ([4]; Homo sapiens, Jurkat, concentration required to rescue 50% of cell death, TNFα for 36 hours, ATP assay, read-out: EC50): 970 nM

SMILES: COC(=O)C[C@H](NC(=O)[C@H](C)NC(=O)[C@@H](NC(=O)OCc1ccccc1)C(C)C)C(=O)CF [zVAD.fmk, N-benzyloxycarbonyl-Val-Ala-Asp-(OMe) fluoromethyl ketone, reference compound] (Cbz-Val-Ala-Asp(OMe)-CH2F)
- protection from OGD-induced neuronal death, in words [9]: did not detect any protection by zVAD.fmk
- effect on AICD, compound alone, in words [11]: only partially protective
